Measured values from patent publication US8865967B2 (priority 2010, dated 2014).

Tested on: Colletotrichum graminicola (CGR; isolate Carroll-IA-99)
Assay type: cell-based
Conditions: in words, variant after one round of DNA shuffling

For “Pp-PDF1-1C-7A4: Pp-PDF1 variant from first shuffling round (RVCEKPSKFFKGLCGSDRDCTNACRKEGLATGECQSKGFFNSVCVCKKPC; Synthetic sequence obtained from DNA shuffling of a plant sequence.)”, the “in vitro inhibitory activity against Colletotrichum graminicola” value was “significantly improved”.
